Experimental data as given in article PMC4476799, “Englerin A Agonizes the TRPC4/C5 Cation Channels to Inhibit Tumor Cell Line Proliferation” (PLoS ONE, 2015).
Read-outs that look alike come from different tables or passages of the source.

System: cancer cell lines from the cancer cell line encyclopedia (CCLE)
Assay: Cell line profiling (CLiP) proliferation experiment
Format: cell-based
Conditions: Homo sapiens; for IC50: read-out: Crossing Point; for EC50: read-out: Inflection Point
Description: Compound profiling experiment and data analysis was performed as previously described. Data was imported and plotted using the Tibco Spotfire DXP application. Lines were categorized as sensitive, intermediate and refractory as follows: Amax<-40 & Inflection Point <2 ~ Sensitive, Amax>-20 & Inflection Point >10 ~ Refractory, all else were called Intermediate. Cancer Cell line HG-U133 Plus 2 data was processed and normalized as described. […] Five sets of refractory cell lines were generated from the pool of refractory cell lines trying to match the lineage composition of the set of sensitive cell lines. The limma package was used as previously described to perform the statistical comparison.

[1] = SNU1, cell line SNU-1, stomach, undifferentiated_adenocarcinoma
[2] = SNU-16, cell line SNU-16, stomach, undifferentiated_adenocarcinoma
[3] = SNU-475, cell line SNU-475, liver, hepatocellular_carcinoma
[4] = SNU-C1, SNU-C1 (large_intestine, adenocarcinoma)
[5] = ST486, ST486 (haematopoietic_and_lymphoid_tissue, Burkitt_lymphoma)
[6] = SU-DHL-4, SU-DHL-4 (haematopoietic_and_lymphoid_tissue, diffuse_large_B_cell_lymphoma)
[7] = SU-DHL-5, SU-DHL-5 (haematopoietic_and_lymphoid_tissue, diffuse_large_B_cell_lymphoma)
[8] = SU-DHL-8, SU-DHL-8 (haematopoietic_and_lymphoid_tissue, diffuse_large_B_cell_lymphoma)
[9] = SW48, SW48 (large_intestine, adenocarcinoma)
[10] = SW480, SW480 (large_intestine, adenocarcinoma)
[11] = SW1088, SW 1088 (central_nervous_system, NS)
[12] = SW1417, SW1417 (large_intestine, adenocarcinoma)
[13] = SW-620, SW620 (large_intestine, adenocarcinoma)
[14] = TE-11, TE-11 (oesophagus, squamous_cell_carcinoma)
[15] = TE-15, TE-15 (oesophagus, squamous_cell_carcinoma)
[16] = TOV112D, TOV-112D (ovary, endometrioid_carcinoma)
[17] = WSUDLCL2, WSU-DLCL2 cell line, haematopoietic_and_lymphoid_tissue, diffuse_large_B_cell_lymphoma
[18] = ZR-75-1, ZR-75-1 cell line, breast, ductal_carcinoma

CC(C)[C@@]12C[C@@H](O)[C@@](C)(O1)[C@@H]1CC[C@@H](C)[C@H]1[C@@H]2OC(=O)/C=C/c1ccccc1 [Englerin B]
IC50 [1]: > 30 µM
EC50 [1]: 12.1 µM
EC50 (SNU-16, SNU-16 cells): 13.5 µM
IC50 [2]: 14.1 µM
EC50 [2]: 13.5 µM
IC50 (SNU-182, SNU-182 (liver)): > 30 µM
IC50 (SNU-182, cell line SNU-182, liver, hepatocellular_carcinoma): > 30 µM
IC50 (SNU-449, SNU-449 (liver)): 19.1 µM
IC50 (SNU-449, cell line SNU-449, liver, hepatocellular_carcinoma): 19.1 µM
IC50 (SNU-475, cell line SNU-475 (liver, hepatocellular_carcinoma)): > 30 µM
IC50 [3]: > 30 µM
EC50 [3]: 12.9 µM
IC50 [4]: > 30 µM
EC50 [4]: 14.8 µM
IC50 (SNU-C1, SNU-C1 cells): > 30 µM
EC50 (SNU-C1, SNU-C1 cells): 14.8 µM
IC50 [5]: 13.5 µM
EC50 [5]: 13.5 µM
IC50 (SU-DHL10, SU-DHL-10 (haematopoietic_and_lymphoid_tissue, diffuse_large_B_cell_lymphoma)): 18.5 µM
IC50 [6]: 20.5 µM
EC50 [6]: 20.5 µM
IC50 [7]: 14.7 µM
EC50 [7]: 14.7 µM
IC50 [8]: 14.6 µM
EC50 [8]: 13.2 µM
IC50 [9]: 29 µM
EC50 [9]: 29 µM
IC50 (SW480, SW480 (large_intestine)): > 30 µM
IC50 [10]: > 30 µM
EC50 [10]: 8.92 µM
IC50 (SW837, SW837 (large_intestine)): > 30 µM
IC50 (SW837, SW837 (large_intestine, adenocarcinoma)): > 30 µM
IC50 (SW948, SW948 (large_intestine)): > 30 µM
IC50 (SW948, SW948 (large_intestine, adenocarcinoma)): > 30 µM
IC50 (SW1088, SW 1088 (central_nervous_system)): > 30 µM
IC50 [11]: > 30 µM
EC50 [11]: 2.41 µM
IC50 (SW1353, SW 1353 (bone)): > 30 µM
IC50 (SW1353, SW 1353 (bone, NS)): > 30 µM
EC50 (SW1353, SW 1353 (bone, NS)): 15.2 µM
IC50 [12]: 26.1 µM
EC50 [12]: 26.1 µM
IC50 (SW1573, SW 1573 (lung)): > 30 µM
IC50 (SW1573, SW 1573 (lung, squamous_cell_carcinoma)): > 30 µM
IC50 (SW1783, SW 1783 (central_nervous_system, astrocytoma_Grade_III)): > 30 µM
IC50 (SW1783, cell line SW 1783 (central_nervous_system, astrocytoma_Grade_III)): > 30 µM
IC50 (SW1990, SW 1990 (pancreas)): > 30 µM
IC50 (SW1990, SW 1990 (pancreas, ductal_carcinoma)): > 30 µM
IC50 [13]: 12.8 µM
EC50 [13]: 11.9 µM
IC50 (T47D, T-47D (breast)): > 30 µM
IC50 (T47D, T-47D (breast, ductal_carcinoma)): > 30 µM
IC50 (T98G, T98G (central_nervous_system)): > 30 µM
IC50 (T98G, T98G (central_nervous_system, astrocytoma_Grade_IV)): > 30 µM
IC50 (TE-10, TE-10 (oesophagus)): > 30 µM
IC50 (TE-10, TE-10 (oesophagus, squamous_cell_carcinoma)): > 30 µM
IC50 (TE-11, TE-11 (oesophagus)): 13.7 µM
IC50 [14]: 13.7 µM
EC50 [14]: 13.5 µM
IC50 [15]: 26 µM
EC50 [15]: 26 µM
IC50 (THP-1, THP-1 (haematopoietic_and_lymphoid_tissue, acute_myeloid_leukaemia)): 17.9 µM
IC50 (TOV21G, TOV-21G (ovary, clear_cell_carcinoma)): 21.8 µM
IC50 [16]: 19.5 µM
EC50 [16]: 21.5 µM
IC50 (U-118-MG, U-118 MG (central_nervous_system, astrocytoma)): > 30 µM
IC50 (U-118-MG, cell line U-118 MG): > 30 µM
IC50 (U-251, U-251 MG (central_nervous_system)): > 30 µM
IC50 (U-251, U-251 MG (central_nervous_system, astrocytoma)): > 30 µM
IC50 (U-937, U-937 (haematopoietic_and_lymphoid_tissue, malignant_histiocytosis)): 14.6 µM
IC50 (UACC-62, UACC-62 (skin)): > 30 µM
IC50 (UACC-62, UACC-62 cell line, skin, NS): > 30 µM
IC50 (UACC-257, UACC-257 (skin, NS)): 19.8 µM
IC50 (UMUC3, UM-UC-3 cell line, urinary_tract, transitional_cell_carcinoma): 25.6 µM
IC50 (VM-CUB-1, VM-CUB1 cell line, urinary_tract, transitional_cell_carcinoma): 18.9 µM
IC50 (WM 266-4, WM-266-4 (skin)): > 30 µM
IC50 (WM 266-4, WM-266-4 cell line, skin, NS): > 30 µM
IC50 (WM793, WM-793 (skin)): > 30 µM
IC50 (WM793, WM-793 cell line, skin, NS): > 30 µM
IC50 (WM-115, WM-115 (skin)): > 30 µM
IC50 (WM-115, WM-115 cell line, skin, NS): > 30 µM
IC50 [17]: 14.2 µM
EC50 [17]: 14.2 µM
IC50 (YAPC, YAPC (pancreas)): > 30 µM
IC50 (YAPC, YAPC cell line, pancreas, NS): > 30 µM
IC50 (YKG-1, YKG1 (central_nervous_system)): > 30 µM
IC50 (YKG-1, YKG1 cell line, central_nervous_system, astrocytoma_Grade_IV): > 30 µM
IC50 (Z-138, Z-138 (haematopoietic_and_lymphoid_tissue)): 15.2 µM
IC50 (Z-138, Z-138 cell line, haematopoietic_and_lymphoid_tissue, mantle_cell_lymphoma): 15.2 µM
IC50 [18]: 21.1 µM
EC50 [18]: 12.9 µM
IC50 (ZR-75-30, ZR-75-30 (breast)): > 30 µM
